Results reported in ChEMBL document CHEMBL1201862, “PubChem BioAssay data set” (2004).
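1) Cells in 96-well plates. 2) Compound, 48 h, 5 concentrations. 3) Linear interpolation between surrounding doses. 4) Unreached endpoint = highest concentration. GI50 marks 50% less growth.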 The source made the active and inactive calls. Cut-off read from the data, not from the text of the source: active = GI50 up to about 1.1 µM and inactive = higher.

Key:
Assay in all cases: DTP human tumour cell line panel, 48 h
HOP-92 = tested on: HOP-92
CCRF-CEM = tested on: CCRF-CEM
SK-OV-3 = tested on: SK-OV-3
SK-MEL-28 = tested on: SK-MEL-28
HOP-18 = tested on: HOP-18
UO-31 = tested on: UO-31
SNB-75 = tested on: SNB-75
OVCAR-5 = tested on: OVCAR-5
NCI-H522 = tested on: NCI-H522
OVCAR-8 = tested on: OVCAR-8
HL-60 = tested on: HL-60
SR = tested on: SR
HCC 2998 = tested on: HCC 2998
HCT-15 = tested on: HCT-15
SNB-19 = tested on: SNB-19
COLO 205 = tested on: COLO 205
OVCAR-4 = tested on: OVCAR-4
DMS-114 = tested on: DMS-114
SW-620 = tested on: SW-620
HOP-62 = tested on: HOP-62
M14 = tested on: M14
LOX IMVI = tested on: LOX IMVI
KM12 = tested on: KM12
UACC-257 = tested on: UACC-257
HCT-116 = tested on: HCT-116
786-0 = tested on: 786-0
A498 = tested on: A498
DLD-1 = tested on: DLD-1
TK-10 = tested on: TK-10
EKVX = tested on: EKVX
ACHN = tested on: ACHN
SF-539 = tested on: SF-539
CAKI-1 = tested on: CAKI-1
SN12C = tested on: SN12C
UACC-62 = tested on: UACC-62
SK-MEL-5 = tested on: SK-MEL-5
DMS-273 = tested on: DMS-273
KM-20L2 = tested on: KM-20L2
LXFL 529 = tested on: LXFL 529
SNB-78 = tested on: SNB-78
SF-268 = tested on: SF-268
NCI-H23 = tested on: NCI-H23
HT-29 = tested on: HT-29
OVCAR-3 = tested on: OVCAR-3
SF-295 = tested on: SF-295
SK-MEL-2 = tested on: SK-MEL-2
A549 = tested on: A549
IGROV-1 = tested on: IGROV-1
K562 = tested on: K562
M19-MEL = tested on: M19-MEL
Malme-3M = tested on: Malme-3M
U-251 = tested on: U-251
MOLT-4 = tested on: MOLT-4
NCI-H460 = tested on: NCI-H460
NCI-H226 = tested on: NCI-H226
RPMI-8226 = tested on: RPMI-8226
MCF7 = tested on: MCF7
NCI/ADR-RES = tested on: NCI/ADR-RES
RXF 393 = tested on: RXF 393
XF498 = tested on: XF498

O=C1NC2OC(CO)C(O)C(O)C2O1 (stereo not drawn)
GI50 (HOP-92): > 100 µM (inactive) | GI50 (CCRF-CEM): > 100 µM (inactive) | GI50 (SK-OV-3): > 100 µM (inactive) | GI50 (SK-MEL-28): > 100 µM (inactive) | GI50 (HOP-18): > 100 µM (inactive) | GI50 (UO-31): > 100 µM (inactive) | GI50 (SNB-75): > 100 µM (inactive) | GI50 (OVCAR-5): > 100 µM (inactive) | GI50 (NCI-H522): > 100 µM (inactive) | GI50 (OVCAR-8): > 100 µM (inactive) | GI50 (HL-60): > 100 µM (inactive) | GI50 (SR): > 100 µM (inactive) | GI50 (HCC 2998): > 100 µM (inactive) | GI50 (HCT-15): > 100 µM | GI50 (SNB-19): > 100 µM (inactive) | GI50 (COLO 205): > 100 µM (inactive) | GI50 (OVCAR-4): > 100 µM (inactive) | GI50 (DMS-114): > 100 µM (inactive) | GI50 (SW-620): > 100 µM (inactive) | GI50 (HOP-62): > 100 µM (inactive) | GI50 (M14): > 100 µM (inactive) | GI50 (LOX IMVI): > 100 µM (inactive) | GI50 (KM12): > 100 µM (inactive) | GI50 (UACC-257): > 100 µM (inactive) | GI50 (HCT-116): > 100 µM (inactive) | GI50 (786-0): > 100 µM (inactive) | GI50 (A498): > 100 µM (inactive) | GI50 (DLD-1): > 100 µM (inactive) | GI50 (TK-10): > 100 µM (inactive) | GI50 (EKVX): > 100 µM (inactive) | GI50 (ACHN): > 100 µM (inactive) | GI50 (SF-539): > 100 µM (inactive) | GI50 (CAKI-1): > 100 µM (inactive) | GI50 (SN12C): > 100 µM (inactive) | GI50 (UACC-62): > 100 µM (inactive) | GI50 (SK-MEL-5): > 100 µM (inactive) | GI50 (DMS-273): > 100 µM (inactive) | GI50 (KM-20L2): > 100 µM (inactive) | GI50 (LXFL 529): > 100 µM (inactive) | GI50 (SNB-78): > 100 µM (inactive) | GI50 (SF-268): > 100 µM (inactive) | GI50 (NCI-H23): > 100 µM (inactive) | GI50 (HT-29): > 100 µM (inactive) | GI50 (OVCAR-3): > 100 µM (inactive) | GI50 (SF-295): > 100 µM (inactive) | GI50 (SK-MEL-2): > 100 µM (inactive) | GI50 (A549): > 100 µM (inactive) | GI50 (IGROV-1): > 100 µM (inactive) | GI50 (K562): > 100 µM (inactive) | GI50 (M19-MEL): > 100 µM (inactive) | GI50 (Malme-3M): > 100 µM (inactive) | GI50 (U-251): > 100 µM (inactive) | GI50 (MOLT-4): > 100 µM (inactive) | GI50 (NCI-H460): > 100 µM (inactive)

CCNC(=O)C(C)C1CCC2(C)C=CC(=O)C(C)=C2C1O (stereo not drawn)
GI50 (NCI-H226): > 100 µM (inactive) | GI50 (HOP-92): > 100 µM (inactive) | GI50 (CCRF-CEM): > 100 µM (inactive) | GI50 (SK-OV-3): > 100 µM (inactive) | GI50 (RPMI-8226): > 100 µM (inactive) | GI50 (MCF7): > 100 µM (inactive) | GI50 (SK-MEL-28): > 100 µM (inactive) | GI50 (HOP-18): > 100 µM (inactive) | GI50 (UO-31): > 73.6 µM (inactive) | GI50 (SNB-75): > 100 µM (inactive) | GI50 (NCI/ADR-RES): > 100 µM (inactive) | GI50 (OVCAR-5): > 100 µM (inactive) | GI50 (NCI-H522): > 100 µM (inactive) | GI50 (OVCAR-8): > 100 µM (inactive) | GI50 (HL-60): > 100 µM (inactive) | GI50 (HCC 2998): > 100 µM (inactive) | GI50 (HCT-15): > 100 µM | GI50 (SNB-19): > 100 µM (inactive) | GI50 (COLO 205): > 100 µM (inactive) | GI50 (OVCAR-4): > 100 µM (inactive) | GI50 (RXF 393): > 100 µM (inactive) | GI50 (DMS-114): > 100 µM (inactive) | GI50 (SW-620): > 100 µM (inactive) | GI50 (HOP-62): > 100 µM (inactive) | GI50 (LOX IMVI): > 91 µM (inactive) | GI50 (KM12): > 100 µM (inactive) | GI50 (UACC-257): > 100 µM (inactive) | GI50 (HCT-116): > 100 µM (inactive) | GI50 (A498): > 100 µM (inactive) | GI50 (DLD-1): > 100 µM (inactive) | GI50 (EKVX): > 100 µM (inactive) | GI50 (SF-539): > 100 µM (inactive) | GI50 (CAKI-1): > 100 µM (inactive) | GI50 (SN12C): > 100 µM (inactive) | GI50 (UACC-62): > 100 µM (inactive) | GI50 (SK-MEL-5): > 100 µM (inactive) | GI50 (DMS-273): > 77.4 µM (inactive) | GI50 (KM-20L2): > 100 µM (inactive) | GI50 (SNB-78): > 100 µM (inactive) | GI50 (SF-268): > 100 µM (inactive) | GI50 (NCI-H23): > 100 µM (inactive) | GI50 (HT-29): > 100 µM (inactive) | GI50 (OVCAR-3): > 100 µM (inactive) | GI50 (SF-295): > 93.5 µM (inactive) | GI50 (XF498): > 100 µM (inactive) | GI50 (SK-MEL-2): > 100 µM (inactive) | GI50 (A549): 99.5 µM (inactive) | GI50 (IGROV-1): 98.4 µM (inactive) | GI50 (K562): > 100 µM (inactive) | GI50 (M19-MEL): > 100 µM (inactive) | GI50 (U-251): > 76.4 µM (inactive) | GI50 (MOLT-4): > 100 µM (inactive) | GI50 (NCI-H460): > 100 µM (inactive)

Cc1ccc(-c2cc(=O)c3cc(C)c(C)c(C(=O)O)c3o2)cc1[N+](=O)[O-]
GI50 (NCI-H226): > 100 µM (inactive) | GI50 (CCRF-CEM): > 100 µM (inactive) | GI50 (SK-OV-3): > 100 µM (inactive) | GI50 (RPMI-8226): > 100 µM (inactive) | GI50 (SK-MEL-28): > 100 µM (inactive) | GI50 (HOP-18): > 100 µM (inactive) | GI50 (UO-31): > 100 µM (inactive) | GI50 (SNB-75): > 100 µM (inactive) | GI50 (OVCAR-5): > 100 µM (inactive) | GI50 (NCI-H522): > 100 µM (inactive) | GI50 (OVCAR-8): > 100 µM (inactive) | GI50 (HCT-15): > 100 µM | GI50 (SNB-19): > 100 µM (inactive) | GI50 (COLO 205): > 100 µM (inactive) | GI50 (OVCAR-4): > 100 µM (inactive) | GI50 (RXF 393): > 100 µM (inactive) | GI50 (DMS-114): > 100 µM (inactive) | GI50 (SW-620): > 100 µM (inactive) | GI50 (M14): > 100 µM (inactive) | GI50 (LOX IMVI): > 100 µM (inactive) | GI50 (KM12): > 100 µM (inactive) | GI50 (UACC-257): > 100 µM (inactive) | GI50 (HCT-116): > 100 µM (inactive) | GI50 (786-0): > 100 µM (inactive) | GI50 (DLD-1): > 100 µM (inactive) | GI50 (TK-10): > 100 µM (inactive) | GI50 (EKVX): > 100 µM (inactive) | GI50 (ACHN): > 100 µM (inactive) | GI50 (SF-539): > 100 µM (inactive) | GI50 (CAKI-1): > 100 µM (inactive) | GI50 (SN12C): > 100 µM (inactive) | GI50 (UACC-62): > 100 µM (inactive) | GI50 (SK-MEL-5): > 100 µM (inactive) | GI50 (DMS-273): > 100 µM (inactive) | GI50 (KM-20L2): > 100 µM (inactive) | GI50 (LXFL 529): > 100 µM (inactive) | GI50 (SNB-78): > 100 µM (inactive) | GI50 (SF-268): > 100 µM (inactive) | GI50 (NCI-H23): > 100 µM (inactive) | GI50 (HT-29): > 100 µM (inactive) | GI50 (OVCAR-3): > 100 µM (inactive) | GI50 (SF-295): > 100 µM (inactive) | GI50 (SK-MEL-2): > 100 µM (inactive) | GI50 (A549): > 100 µM (inactive) | GI50 (IGROV-1): > 100 µM (inactive) | GI50 (K562): > 100 µM (inactive) | GI50 (M19-MEL): > 100 µM (inactive) | GI50 (Malme-3M): > 100 µM (inactive) | GI50 (U-251): > 100 µM (inactive) | GI50 (MOLT-4): > 100 µM (inactive) | GI50 (NCI-H460): > 100 µM (inactive)
